For 20 molecules, T/C results are on record in PubChem BioAssay AID248 (DTP/NCI, 2004).

This assay has as its system L1210 leukemia ip in BDF1 mice, survival T/C. The experiment in a line: NCI In Vivo Anticancer Drug Screen. Data for tumor model L1210 Leukemia (intraperitoneal) in B6D2F1 (BDF1) mice. Particulars: endpoint: mean survival time, higher = longer survival. In short, it runs like this: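 Tumor was transplanted into mice, which were then dosed with test compound or vehicle alone. Survival was recorded for each group, and the treated figure was expressed relative to the control figure.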

Where [1] appears, read: dose: 100.0 mg/kg/injection, schedule: Q01DX009 (ip), vehicle: saline.
The mark [2] stands for this setting: dose: 100.0 mg/kg/injection, schedule: Q01DX001 (ip), vehicle: carboxymethylcellulose (CMC).
Where [3] appears, read: dose: 200.0 mg/kg/injection, schedule: Q01DX001 (ip), vehicle: carboxymethylcellulose (CMC).
Where [4] appears, read: dose: 400.0 mg/kg/injection, schedule: Q01DX001 (ip), vehicle: carboxymethylcellulose (CMC).
Setting [5] is: dose: 100.0 mg/kg/injection, schedule: Q04DX002 (ip), vehicle: Klucel (hydroxypropylcellulose) (HPC).
The mark [6] stands for this setting: dose: 200.0 mg/kg/injection, schedule: Q04DX002 (ip), vehicle: Klucel (hydroxypropylcellulose) (HPC).
Where [7] appears, read: dose: 100.0 mg/kg/injection, schedule: Q01DX001 (ip), vehicle: Klucel (hydroxypropylcellulose) (HPC).
Where [8] appears, read: dose: 200.0 mg/kg/injection, schedule: Q01DX001 (ip), vehicle: Klucel (hydroxypropylcellulose) (HPC).
Where [9] appears, read: dose: 100.0 mg/kg/injection, schedule: Q01DX009 (ip), vehicle: Klucel (hydroxypropylcellulose) (HPC).
The mark [10] stands for this setting: dose: 400.0 mg/kg/injection, schedule: Q01DX001 (ip), vehicle: Klucel (hydroxypropylcellulose) (HPC).
Setting [11] is: dose: 25.0 mg/kg/injection, schedule: Q01DX009 (ip), vehicle: Klucel (hydroxypropylcellulose) (HPC).

Several values for one entry are separate records, joined by “and”; a condition that tells them apart may be missing. Identical values can stand only once. Inconclusive results and toxic doses are left out.

Regarding `O=C1CSC(=S)N1c1ccco1`, the T/C by setting is: under setting [1], 102 % of control; (dose: 100.0 mg/kg/injection, schedule: Q04DX003 (ip), vehicle: saline) 93 % of control; (dose: 200.0 mg/kg/injection, schedule: Q01DX009 (ip), vehicle: saline) 102 % of control; (dose: 200.0 mg/kg/injection, schedule: Q04DX003 (ip), vehicle: saline) 88 % of control; (dose: 400.0 mg/kg/injection, schedule: Q04DX003 (ip), vehicle: saline) 93 % of control.

For `O=C1c2ccccc2C(=O)N1Cc1ccccc1`, the T/C (dose: 100.0 mg/kg/injection, schedule: Q04DX003 (ip), vehicle: saline with Tween-80) is 92 % of control; the T/C (dose: 200.0 mg/kg/injection, schedule: Q04DX003 (ip), vehicle: saline with Tween-80) is 100 % of control; the T/C (dose: 400.0 mg/kg/injection, schedule: Q04DX003 (ip), vehicle: saline with Tween-80) was 96 % of control.

As to `Nc1cc(Cl)ccc1Oc1ccc(Cl)cc1`, the T/C (dose: 37.5 mg/kg/injection, schedule: Q01DX009 (ip), vehicle: Klucel (hydroxypropylcellulose) (HPC)) was 103 % of control; the T/C (dose: 75.0 mg/kg/injection, schedule: Q01DX009 (ip), vehicle: Klucel (hydroxypropylcellulose) (HPC)) is 98 % of control; the T/C (dose: 150.0 mg/kg/injection, schedule: Q01DX009 (ip), vehicle: Klucel (hydroxypropylcellulose) (HPC)) is 95 % of control.

Consider `COC1=C(NCCc2ccccc2)C(=O)C(OC)=C(NCCc2ccccc2)C1=O`, for which the T/C (dose: 50.0 mg/kg/injection, schedule: Q01DX001 (ip), vehicle: carboxymethylcellulose (CMC)) was 96 % of control; the T/C under setting [2] is 94 % of control; the T/C under setting [3] is 89 % of control; the T/C under setting [4] is 89 % of control.

Turning to `CCOc1cc(/C=N\Nc2nncn2N)ccc1N(CCCl)CCCl`, the T/C (dose: 0.5 mg/kg/injection, schedule: Q01DX015 (ip), vehicle: carboxymethylcellulose (CMC)) was 109 % of control; the T/C (dose: 1.0 mg/kg/injection, schedule: Q01DX015 (ip), vehicle: carboxymethylcellulose (CMC)) is 111 % of control; the T/C (dose: 2.0 mg/kg/injection, schedule: Q01DX015 (ip), vehicle: carboxymethylcellulose (CMC)) was 116 % of control; the T/C (dose: 4.0 mg/kg/injection, schedule: Q01DX015 (ip), vehicle: carboxymethylcellulose (CMC)) was 101 % of control and 109 % of control; the T/C (dose: 5.0 mg/kg/injection, schedule: Q01DX001 (ip), vehicle: carboxymethylcellulose (CMC)) was 98 % of control and 117 % of control; the T/C (dose: 7.0 mg/kg/injection, schedule: Q01DX015 (ip), vehicle: carboxymethylcellulose (CMC)) was 107 % of control and 90 % of control. Also, the T/C (dose: 10.0 mg/kg/injection, schedule: Q01DX001 (ip), vehicle: carboxymethylcellulose (CMC)) was 101 % of control; the T/C (dose: 12.0 mg/kg/injection, schedule: Q01DX015 (ip), vehicle: carboxymethylcellulose (CMC)) is 98 % of control and 117 % of control; the T/C (dose: 20.0 mg/kg/injection, schedule: Q01DX001 (ip), vehicle: carboxymethylcellulose (CMC)) is 95 % of control and 106 % of control; the T/C (dose: 20.0 mg/kg/injection, schedule: Q01DX015 (ip), vehicle: carboxymethylcellulose (CMC)) is 120 % of control; the T/C (dose: 40.0 mg/kg/injection, schedule: Q01DX001 (ip), vehicle: carboxymethylcellulose (CMC)) is 106 % of control.

Take `Cc1cnc(/N=C(\N)N2CCOCC2)nc1-c1ccccc1O`: the T/C runs as follows: under setting [5], 88 % of control; under setting [6], 88 % of control.

Take `CCc1cc(CC)c(S(=O)(=O)O)c(CC)c1CC`: the T/C under setting [1] is 90 % of control.

Regarding `Fc1cc(F)c(CCl)c(F)c1`, the T/C (dose: 100.0 mg/kg/injection, schedule: Q01DX009 (ip), vehicle: acetone) was 94 % of control.

As to `CN1C(=O)C2(c3ccccc31)C1CC3C(CO1)C1C2C3(CO)C[N+]1(C)C` (configuration not stated), the T/C is 97 % of control (dose: 100.0 mg/kg/injection, schedule: Q01DX001 (ip), vehicle: saline) and 102 % of control (dose: 200.0 mg/kg/injection, schedule: Q01DX001 (ip), vehicle: saline).

For `Cc1cc(C)c(C(=O)C(=S)N2CCOCC2)c(C)c1`, the T/C (dose: 200.0 mg/kg/injection, schedule: Q01DX009 (ip), vehicle: acetone) was 90 % of control and the T/C (dose: 400.0 mg/kg/injection, schedule: Q01DX009 (ip), vehicle: acetone) is 96 % of control.

On to `CCN(CC)c1cccc(OC(=O)NC)c1`, for which the T/C reads like this: (dose: 0.75 mg/kg/injection, schedule: Q01DX009 (ip), vehicle: saline with Tween-80) 91 % of control; (dose: 1.5 mg/kg/injection, schedule: Q01DX009 (ip), vehicle: saline with Tween-80) 94 % of control; (dose: 3.0 mg/kg/injection, schedule: Q01DX009 (ip), vehicle: saline with Tween-80) 94 % of control.

As for `C=C(C)Cc1cnc(SC)[nH]c1=O`, the T/C was 98 % of control (dose: 50.0 mg/kg/injection, schedule: Q01DX001 (ip), vehicle: Klucel (hydroxypropylcellulose) (HPC)); 100 % of control under setting [7]; 98 % of control under setting [8].

`O=C1N(CCCl)CCN1c1ccccc1`: the T/C is 93 % of control under setting [7]; 104 % of control under setting [9]; 96 % of control under setting [8]; 106 % of control (dose: 200.0 mg/kg/injection, schedule: Q01DX009 (ip), vehicle: Klucel (hydroxypropylcellulose) (HPC)); 95 % of control under setting [10]; 106 % of control (dose: 400.0 mg/kg/injection, schedule: Q01DX009 (ip), vehicle: Klucel (hydroxypropylcellulose) (HPC)).

Turning to `O=C(O)c1ccc(CNc2ccc(C(=O)CCl)cc2)cc1`, the T/C is, setting by setting: under setting [2], 102 % of control; under setting [3], 102 % of control; under setting [4], 118 % of control.

On to `COC(=O)C(C)NC(=O)C(COC1OC(COC(C)=O)C(OC(C)=O)C(OC(C)=O)C1NC(C)=O)NC(=O)OCc1ccccc1` (configuration not stated), for which the T/C was 98 % of control (dose: 50.0 mg/kg/injection, schedule: Q04DX002 (ip), vehicle: Klucel (hydroxypropylcellulose) (HPC)); 91 % of control under setting [5]; 98 % of control under setting [6].

Turning to `CCOC(=O)/C(C#N)=C(/C)C1CC1`, the T/C runs as follows: (dose: 6.25 mg/kg/injection, schedule: Q01DX009 (ip), vehicle: Klucel (hydroxypropylcellulose) (HPC)) 95 % of control; (dose: 12.5 mg/kg/injection, schedule: Q01DX009 (ip), vehicle: Klucel (hydroxypropylcellulose) (HPC)) 105 % of control; under setting [11], 97 % of control; (dose: 75.0 mg/kg/injection, schedule: Q01DX001 (ip), vehicle: carboxymethylcellulose (CMC)) 95 % of control; (dose: 150.0 mg/kg/injection, schedule: Q01DX001 (ip), vehicle: carboxymethylcellulose (CMC)) 105 % of control.

Turning to `Oc1ccccc1OCCOCCCl`, the T/C runs as follows: (dose: 100.0 mg/kg/injection, schedule: Q04DX002 (sc), vehicle: olive oil, sesame oil, peanut oil) 93 % of control; (dose: 200.0 mg/kg/injection, schedule: Q04DX002 (sc), vehicle: olive oil, sesame oil, peanut oil) 101 % of control; (dose: 400.0 mg/kg/injection, schedule: Q04DX002 (sc), vehicle: olive oil, sesame oil, peanut oil) 246 % of control.

Turning to `CCCCCCCCCCCC(=O)N/N=C/c1ccccc1OC`, the T/C is 90 % of control under setting [11]; 94 % of control (dose: 50.0 mg/kg/injection, schedule: Q01DX009 (ip), vehicle: Klucel (hydroxypropylcellulose) (HPC)); 87 % of control and 90 % of control under setting [9].

On to `N=C(N=C(Cc1ccccc1)c1ccccc1)c1ccccc1`, for which the T/C runs as follows: under setting [7], 92 % of control; (dose: 100.0 mg/kg/injection, schedule: Q04DX003 (ip), vehicle: Klucel (hydroxypropylcellulose) (HPC)) 104 % of control; under setting [8], 92 % of control; (dose: 200.0 mg/kg/injection, schedule: Q04DX003 (ip), vehicle: Klucel (hydroxypropylcellulose) (HPC)) 96 % of control; under setting [10], 94 % of control; (dose: 400.0 mg/kg/injection, schedule: Q04DX003 (ip), vehicle: Klucel (hydroxypropylcellulose) (HPC)) 91 % of control.

Turning to `CCCC(CCC)OC(=O)C(O)c1ccccc1` (configuration not stated), the T/C runs as follows: (dose: 100.0 mg/kg/injection, schedule: Q01DX001 (ip), vehicle: acetone) 94 % of control; (dose: 200.0 mg/kg/injection, schedule: Q01DX001 (ip), vehicle: acetone) 94 % of control; (dose: 400.0 mg/kg/injection, schedule: Q01DX001 (ip), vehicle: acetone) 100 % of control.
